From patent US5482964A, “Substituted phenoxyhydroxypropyl amines as central nervous system agents” (Warner-Lambert Company, priority 1994, dated 1996)

Assays:
P-type calcium channels = target: T1, P-type calcium channels (Rattus norvegicus, UniProt P54282); assay: Inhibition of depolarization induced Ca++ flux (CaFl), 45Ca++ influx into rat neocortical synaptosomes; assay type: biochemical; details: for IC50: 30 mM KCl stimulated 45Ca flux, rat neocortical synaptosomes; for inhibition at 10 µM / inhibition at 30 µM: read-out: CaFl, percent inhibition
T1 construct: Male rats (Sprague-Dawley, 200-220 g) were killed by decapitation and neocortices were isolated by blunt dissection; from tissue; host or cells: Sprague-Dawley rat neocortex, crude synaptosomes
From the text: A large influx of calcium from extracellular compartments into neurons is observed after opening of voltage-dependent calcium channels. The opening of calcium channels may be induced by a K^+ -stimulated depolarization of neuronal membranes. A crude synaptosomal preparation contains small vesicles surrounded by neuronal membranes, and it is feasible to study the opening of voltage-operated calcium channels in such a preparation. In the test described below, the influx of ^45 Ca^++ into rat synaptosomes is studied under depolarized conditions. The effect of the test compounds on the depolarization induced calcium update can thus be studied. The calcium influx measured in this assay is believed to represent the P-type calcium channels.
Male rats (Sprague-Dawley, 200-220 g) were killed by decapitation and neocortices were isolated by blunt dissection. White matter was dissected away and the gray matter was placed in cold sucrose buffer (composition (mM): sucrose 320, TRIS base 5.0, EDTA 0.1; adjusted to pH 7.3 with HCl). The tissue was homogenized using 5 strokes at 500 rpm followed by 4 strokes at 800 rpm. The homogenate was centrifuged at 1075 g for 10 minutes. The pellet was discarded and the supernatant was centrifuged at 15800 g for 10 minutes at 4° C., and the supernatant was discarded. The final pellet was resuspended in incubation buffer and kept on ice.
Fifty-microliter aliquots of neocortical synaptosome suspension were preincubated for 5 minutes at 25° C. in 400 μL of incubation buffer containing drug or control solvent. The synaptosomes were then exposed to a tracer quantity of ^45 CaCl2 (1 μCi/mL) in combination with either 3 mM KCl (basal calcium flux or 30 mM KCl (stimulated calcium flux). The calcium flux was terminated by filtration over glass-fiber filters (GFB) using a Skatron 12-well harvester; filters were washed with a pressurized, continuous flow of 3 mL wash buffer (composition (mM): choline chloride 140, EGTA 3, HEPES 22; adjusted to pH 7.3 with TRIS base). Radioactivity of the filters was measured by scintillation counting. Basal calcium flux was subtracted from stimulated calcium flux in both control- and drug-treated conditions, and data were expressed as percent inhibition of the adjusted control response.

sodium channels = details: rat neocortical membranes, 5 nM [3H]batrachotoxinin, Cheng-Prusoff; read-out: BTX Binding
male CF-1 mice = assay: Maximal electroshock (MES) anticonvulsant screen in mice; assay type: in vivo
Procedure: All experiments were conducted on male CF-1 mice (Charles River Laboratory, Portage, Mich.). The mice weighed 20 to 35 g and were allowed free access to food and water prior to testing. The compounds were dissolved in various solutions of up to 50% organic solvents and 50% buffered solutions. All doses were injected intravenously (IV) in a volume of 1.0 mL per 100 g of body weight using a 25-gauge needle and a 1 cc syringe. Doses of the compounds were calculated as the free base.
Maximal electroshock was administered via corneal electrodes with an electroshock apparatus (Wahlquist Instrument Company) immediately following the inverted screen test. The stimulus consisted of a 50 mA current (100 mA peak-to-peak) and duration of 0.2 seconds. The protocol for the MES assay involved groups of five mice per dose at each time period postdose. […] The mice were sacrificed with carbon dioxide immediately after MES. Anticonvulsant data were recorded as the number of mice protected from MES out of five. Two out of five were considered active.

T1 sequence (P54282 whole entry): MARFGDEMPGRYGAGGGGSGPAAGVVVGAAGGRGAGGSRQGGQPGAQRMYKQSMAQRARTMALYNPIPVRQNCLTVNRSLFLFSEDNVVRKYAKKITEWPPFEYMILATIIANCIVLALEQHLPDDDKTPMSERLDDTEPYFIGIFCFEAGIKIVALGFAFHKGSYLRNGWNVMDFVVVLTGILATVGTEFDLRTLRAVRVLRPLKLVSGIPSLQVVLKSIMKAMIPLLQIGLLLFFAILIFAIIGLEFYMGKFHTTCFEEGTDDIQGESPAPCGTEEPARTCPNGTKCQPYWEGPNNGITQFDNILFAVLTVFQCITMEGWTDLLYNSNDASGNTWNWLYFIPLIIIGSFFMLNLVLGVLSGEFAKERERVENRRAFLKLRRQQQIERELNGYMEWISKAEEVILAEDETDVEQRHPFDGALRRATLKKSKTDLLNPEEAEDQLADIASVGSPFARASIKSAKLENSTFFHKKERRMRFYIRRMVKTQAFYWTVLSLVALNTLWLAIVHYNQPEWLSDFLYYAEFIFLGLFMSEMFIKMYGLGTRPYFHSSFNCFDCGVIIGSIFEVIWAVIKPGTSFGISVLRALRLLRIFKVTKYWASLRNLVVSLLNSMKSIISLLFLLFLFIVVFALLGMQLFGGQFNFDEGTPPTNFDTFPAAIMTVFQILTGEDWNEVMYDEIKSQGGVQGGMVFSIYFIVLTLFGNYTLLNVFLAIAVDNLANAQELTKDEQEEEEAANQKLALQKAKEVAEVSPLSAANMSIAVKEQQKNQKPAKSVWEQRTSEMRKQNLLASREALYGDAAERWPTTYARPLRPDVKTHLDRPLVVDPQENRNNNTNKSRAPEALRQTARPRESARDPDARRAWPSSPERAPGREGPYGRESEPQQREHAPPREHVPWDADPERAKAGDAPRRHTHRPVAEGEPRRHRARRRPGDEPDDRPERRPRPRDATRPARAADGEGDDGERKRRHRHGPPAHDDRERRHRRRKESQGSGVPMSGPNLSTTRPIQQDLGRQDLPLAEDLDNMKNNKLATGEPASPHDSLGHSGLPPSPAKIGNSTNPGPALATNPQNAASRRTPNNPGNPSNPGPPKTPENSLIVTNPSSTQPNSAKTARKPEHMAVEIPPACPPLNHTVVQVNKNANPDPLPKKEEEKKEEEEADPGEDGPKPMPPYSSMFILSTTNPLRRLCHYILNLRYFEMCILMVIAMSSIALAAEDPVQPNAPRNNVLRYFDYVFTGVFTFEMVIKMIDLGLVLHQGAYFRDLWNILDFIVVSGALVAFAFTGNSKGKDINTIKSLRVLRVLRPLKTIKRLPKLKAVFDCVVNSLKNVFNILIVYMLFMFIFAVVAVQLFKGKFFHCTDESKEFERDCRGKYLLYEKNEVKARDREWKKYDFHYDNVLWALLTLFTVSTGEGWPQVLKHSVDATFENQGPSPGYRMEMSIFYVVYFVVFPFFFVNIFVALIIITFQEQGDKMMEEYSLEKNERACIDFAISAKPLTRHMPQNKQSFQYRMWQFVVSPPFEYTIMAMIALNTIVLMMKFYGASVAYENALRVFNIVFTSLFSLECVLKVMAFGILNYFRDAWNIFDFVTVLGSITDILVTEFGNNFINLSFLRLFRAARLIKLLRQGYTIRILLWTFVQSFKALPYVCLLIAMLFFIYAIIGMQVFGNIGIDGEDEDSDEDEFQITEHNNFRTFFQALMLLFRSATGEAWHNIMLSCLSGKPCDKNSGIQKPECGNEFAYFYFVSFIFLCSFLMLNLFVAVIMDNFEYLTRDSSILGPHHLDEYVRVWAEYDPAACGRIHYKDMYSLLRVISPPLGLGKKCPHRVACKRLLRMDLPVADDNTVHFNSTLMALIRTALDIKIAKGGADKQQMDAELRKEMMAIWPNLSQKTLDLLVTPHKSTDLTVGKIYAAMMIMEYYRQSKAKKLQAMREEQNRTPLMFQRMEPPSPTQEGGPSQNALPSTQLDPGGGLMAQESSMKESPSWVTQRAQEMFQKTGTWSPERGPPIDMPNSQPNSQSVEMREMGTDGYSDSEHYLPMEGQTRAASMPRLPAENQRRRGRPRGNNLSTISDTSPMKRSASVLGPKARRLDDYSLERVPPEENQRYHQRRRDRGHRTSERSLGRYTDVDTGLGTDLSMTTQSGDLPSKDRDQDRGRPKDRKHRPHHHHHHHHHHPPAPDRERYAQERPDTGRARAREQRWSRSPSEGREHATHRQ

## COc1ccc(CCN(Cc2ccccc2[N+](=O)[O-])CC(O)COc2cccc(C)c2)cc1OC (stereo not shown) [Example 11, 1-[[2-(3,4-Dimethoxyphenyl)-ethyl]-(2-nitrobenzyl)amino]-3-m-tolyloxy-propan-2-ol]
P-type calcium channels
  IC50: 3.1 µM

## COc1ccc(CCN(Cc2ccc(Cl)cc2)CC(O)COc2cccc(C)c2)cc1OC (stereo not shown) [Example 3, 1-{(4-Chlorobenzyl)-[2-(3,4-dimethoxyphenyl)-ethyl]-amino}-3-m-tolyloxy-propan-2-ol]
P-type calcium channels
  inhibition at 10 µM: 44%
  inhibition at 30 µM: 77%

## COc1ccc(CCN(Cc2ccccc2)CC(O)COc2ccc3c(c2)CCC3)cc1OC (stereo not shown) [Example 16, 1-{Benzyl-[2-(3,4-dimethoxyphenyl)-ethyl]-amino}-3-(indan-5-yloxy)-propan-2-ol]
P-type calcium channels
  IC50: 4.8 µM

## COc1ccc(CCN(Cc2ccccc2)CC(O)COc2cccc(C(F)(F)F)c2)cc1OC (stereo not shown) [Example 20, 1-{Benzyl-[2-(3,4-dimethoxyphenyl)-ethyl]-amino}-3-(3-trifluoromethylphenoxy)-propan-2-ol]
P-type calcium channels
  IC50: 4.7 µM
Sodium channels
  Ki: 0.62 µM

## COc1ccc(CCN(Cc2cccc3ccccc23)CC(O)COc2cccc(C)c2)cc1OC (stereo not shown) [Example 9, 1-{[2-(3,4-Dimethoxyphenyl)-ethyl]-naphthalen-1-ylmethylamino}-3-m-tolyloxy-propan-2-ol]
P-type calcium channels
  IC50: 9.9 µM

## COc1ccc(CCN(Cc2ccccc2)CC(O)COc2ccc(OCc3ccccc3)cc2)cc1OC (stereo not shown) [Example 14, 1-{Benzyl-[2-(3,4-dimethoxyphenyl)-ethyl]-amino}-3-(4-benzyloxyphenoxy)-propan-2-ol]
P-type calcium channels
  IC50: 5 µM
Sodium channels
  Ki: 0.016 µM

## COc1ccc(CCN(CCc2ccccc2)CC(O)COc2cccc(C)c2)cc1OC (stereo not shown) [Example 22, 1-{[2-(3,4-Dimethoxyphenyl)ethyl]-phenethylamino}-3-m-tolyloxy-propan-2-ol]
P-type calcium channels
  IC50: 1.4 µM

## COc1ccc(CCN(Cc2ccccc2)CC(O)CSc2cccc3ccccc23)cc1OC (stereo not shown) [Example 19, 1-{Benzyl-[2-(3,4-dimethoxyphenyl)-ethyl]-amino}-3-(naphthalen-1-ylsulfanyl)-propan-2-ol]
P-type calcium channels
  IC50: 2.5 µM
Sodium channels
  Ki: 0.2 µM

## COc1cccc(CN(CCc2ccc(OC)c(OC)c2)CC(O)COc2cccc(C)c2)c1 (stereo not shown) [Example 10, 1-[[2-(3,4-Dimethoxyphenyl)-ethyl]-(3-methoxybenzyl)amino]-3-m-tolyloxy-propan-2-ol]
P-type calcium channels
  IC50: 5.1 µM

## COc1ccc(CCN(C)CC(O)COc2ccc3c(c2)CCC3)cc1OC (stereo not shown) [Example 27]
P-type calcium channels
  inhibition at 10 µM: 43%
  inhibition at 30 µM: 69%

## COc1ccc(CCN(Cc2cccc([N+](=O)[O-])c2)CC(O)COc2cccc(C)c2)cc1OC (stereo not shown) [Example 6, 1-[[2-(3,4-Dimethoxyphenyl)-ethyl]-(3-nitrobenzyl)amino]-3-m-tolyloxy-propan-2-ol]
P-type calcium channels
  inhibition at 10 µM: 57%
  inhibition at 30 µM: 62%

## COc1ccc(CCN(Cc2cccc(F)c2)CC(O)COc2cccc(C)c2)cc1OC (stereo not shown) [Example 4, 1-[[2-(3,4-Dimethoxyphenyl)-ethyl]-(3-fluorobenzyl)amino]-3-m-tolyloxy-propan-2-ol]
P-type calcium channels
  IC50: 6.6 µM

## COc1ccc(CCN(C)CC(O)COc2cccc(C)c2)cc1OC (stereo not shown) [Example 25, 1-{[2-(3,4-Dimethoxyphenyl)-ethyl]-methylamino}-3-m-tolyloxy-propan-2-ol]
P-type calcium channels
  inhibition at 30 µM: 31%

## COc1ccc(CCN(Cc2ccccc2)CC(O)COc2cccc3ccccc23)cc1OC (stereo not shown) [Example 18, 1-{Benzyl-[2-(3,4-dimethoxyphenyl)-ethyl]-amino}-3-(naphthalen-1-yloxy)-propan-2-ol]
P-type calcium channels
  IC50: 8.1 µM

## COc1ccc(CCN(Cc2cccc(Cl)c2)CC(O)COc2cccc(C)c2)cc1OC (stereo not shown) [Example 7, 1-{(3-Chlorobenzyl)-[2-(3,4-dimethoxyphenyl)ethyl]-amino}-3-m-tolyloxy-propan-2-ol]
P-type calcium channels
  inhibition at 10 µM: 47%

## COc1ccc(CCN(Cc2ccc([N+](=O)[O-])cc2)CC(O)COc2cccc(C)c2)cc1OC (stereo not shown) [Example 5, 1-[[2-(3,4-Dimethoxyphenyl)-ethyl]-(4-nitrobenzyl)amino]-3-m-tolyloxy-propan-2-ol]
P-type calcium channels
  inhibition at 10 µM: 59%
  inhibition at 30 µM: 62%

## COc1ccc(CCN(C)CC(O)COc2ccc(C3CCCCC3)cc2C)cc1OC (stereo not shown) [Example 24, 1-(4-Cyclohexyl-2-methylphenoxy)-3-{[2-(3,4-dimethoxyphenyl)-ethyl]-methylamino}-propan-2-ol]
P-type calcium channels
  IC50: 2.1 µM
Male CF-1 mice; 1 mg/kg IV, 3 min postdose
  MES, number of mice protected: 0/5
Male CF-1 mice; 1 mg/kg IV, 30 min postdose
  MES, number of mice protected: 0/5
Male CF-1 mice; 3 mg/kg IV, 3 min postdose
  MES, number of mice protected: 0/5
Male CF-1 mice; 3 mg/kg IV, 30 min postdose
  MES, number of mice protected: 1/5
Male CF-1 mice; 3 mg/kg IV, 1 hr postdose
  MES, number of mice protected: 1/5
Male CF-1 mice; 10 mg/kg IV, 3 min postdose
  MES, number of mice protected: 4/5
Male CF-1 mice; 10 mg/kg IV, 30 min postdose
  MES, number of mice protected: 4/5
Male CF-1 mice; 10 mg/kg IV, 1 hr group
  Animals died in this group: 1/5
Male CF-1 mice; 10 mg/kg IV, 1 hr postdose
  MES, number of mice protected: 3/4
Sodium channels
  Ki: 0.31 µM

## COc1ccccc1CN(CCc1ccc(OC)c(OC)c1)CC(O)COc1cccc(C)c1 (stereo not shown) [Example 12, 1-[[2-(3,4-Dimethoxyphenyl)-ethyl]-(2-methoxybenzyl)amino]-3-m-tolyloxy-propan-2-ol]
P-type calcium channels
  IC50: 4.1 µM

## COc1ccc(CCN(Cc2ccccc2)CC(O)COc2ccc(C3CCCCC3)cc2C)cc1OC (stereo not shown) [Example 15, 1-{Benzyl-[2-(3,4-dimethoxyphenyl)-ethyl]-amino}-3-(4-cyclohexyl-2-methylphenoxy)-propan-2-ol]
P-type calcium channels
  IC50: 9.2 µM

## COc1ccc(CCN(CC(O)COc2cccc(C)c2)CC2CCCCC2)cc1OC (stereo not shown) [Example 23, 1-{Cyclohexylmethyl-[2-(3,4-dimethoxyphenyl)ethyl]-amino}-3-m-tolyloxy-propan-2-ol]
P-type calcium channels
  IC50: 1.9 µM

## COc1ccc(CCN(Cc2ccccc2)CC(O)COc2cccc(C)c2)cc1OC (stereo not shown) [Example 2, 1-{Benzyl-[2-(3,4-dimethoxyphenyl)-ethyl]amino}-3-m-tolyloxy-propan-2-ol]
P-type calcium channels
  IC50: 9.2 µM
Sodium channels
  Ki: 0.52 µM

## COc1ccc(CCN(C)CC(O)COc2cccc3ccccc23)cc1OC (stereo not shown) [Example 28, 1-{[2-(3,4-Dimethoxyphenyl)-ethyl]-methylamino}-3-(naphthalen-1-yloxy)-propan-2-ol]
P-type calcium channels
  IC50: 6.8 µM

## COc1ccc(CCN(C)CC(O)COc2ccc(OCc3ccccc3)cc2)cc1OC (stereo not shown) [Example 26, 1-(4-Benzyloxyphenoxy)-3-{[2-(3,4-dimethoxyphenyl)ethyl]-methylamino}-propan-2-ol]
P-type calcium channels
  IC50: 3.3 µM

## COc1ccc(CCN(Cc2c[nH]c3ccccc23)CC(O)COc2cccc(C)c2)cc1OC (stereo not shown) [Example 30, 1-[[2-(3,4-Dimethoxyphenyl)ethyl]-(1H-indol-3-ylmethyl)-amino]-3-m-tolyloxypropan-2-ol]
P-type calcium channels
  IC50: 4.5 µM
Sodium channels
  Ki: 0.015 µM

## COc1ccc(CCN(Cc2ccc(F)cc2)CC(O)COc2cccc(C)c2)cc1OC (stereo not shown) [Example 1, 1-[[2-(3,4-Dimethoxyphenyl)-ethyl]-(4-fluorobenzyl)amino]-3-m-tolyloxy-propan-2-ol]
P-type calcium channels
  IC50: 5.2 µM

## COc1ccc(CCN(Cc2ccccc2Cl)CC(O)COc2cccc(C)c2)cc1OC (stereo not shown) [Example 17, 1-{(2-Chlorobenzyl)-[2-(3,4-dimethoxyphenyl)ethyl]-amino}-3-m-tolyloxy-propan-2-ol]
P-type calcium channels
  inhibition at 10 µM: 46%
  inhibition at 30 µM: 55%

## COc1ccc(CCN(Cc2ccccc2F)CC(O)COc2cccc(C)c2)cc1OC (stereo not shown) [Example 13, 1-[[2-(3,4-Dimethoxyphenyl)-ethyl]-(2-fluorobenzyl)amino]-3-m-tolyloxy-propan-2-ol]
P-type calcium channels
  IC50: 1.8 µM

## COc1ccc(CCN(C)CC(O)CSc2cccc3ccccc23)cc1OC (stereo not shown) [Example 29, 1-{[2-(3,4-Dimethoxyphenyl)-ethyl]-methylamino}-3-(naphthalen-1-ylsulfanyl)-propan-2-ol]
P-type calcium channels
  IC50: 3.6 µM

## COc1ccc(CN(CCc2ccc(OC)c(OC)c2)CC(O)COc2cccc(C)c2)cc1 (stereo not shown) [Example 8, 1-[[2-(3,4-Dimethoxyphenyl)-ethyl]-(4-methoxybenzyl)amino]-3-m-tolyloxy-propan-2-ol]
P-type calcium channels
  IC50: 5.4 µM
Sodium channels
  Ki: 0.152 µM

## COc1ccc(CCN(Cc2ccccc2)CC(O)CSc2cccc(C(F)(F)F)c2)cc1OC (stereo not shown) [Example 21, 1-{Benzyl-[2-(3,4-dimethoxyphenyl)-ethyl]-amino}-3-(3-trifluoromethylphenylsulfanyl)-propan-2-ol]
P-type calcium channels
  IC50: 4.3 µM
Sodium channels
  Ki: 0.44 µM
